Reference: patent publication US20110021505A1, “Use of sulfonyl-substituted 2-sulfonylaminobenzoic acid N-phenylamides in the treatment of pain” (SANOFI-AVENTIS DEUTSCHLAND GMBH, priority 2007, published 2011)

Tested on: tactile allodynia induced in a hind paw by surgical lesion of the sciatic nerve
Test: Anti-allodynic effect in the spared nerve injury (SNI) model of neuropathic pain in mice after oral administration
Format: in vivo, male C57B6 mice
Conditions: for Mean PWT (paw withdrawal threshold) ± SEM / DeltaAUC1 h-6 h of PWL (mean ± SEM): N=4; for Statistical evaluation vs. control (DeltaAUC1 h-6 h): 1-way ANOVA & Dunnett; for DeltaAUC1 h-6 h of PWL (mean ± SEM): AUC contralateral minus ipsilateral paws, 1 h to 6 h after administration
Procedure: In this in vivo mouse model of chronic neuropathic pain the effect on tactile allodynia, a painful sensation after a normally not painful mechanical stimulus, which had been induced in a hind paw by surgical lesion of the sciatic nerve, was determined by measuring the paw withdrawal threshold (PWT), i.e. the exerted force (expressed in grams) at which the mouse withdrew its hind paw.
Tactile allodynia was determined at both hind paws, i.e. ipsilateral and contralateral to the lesion if determined subsequent to surgery, with the automatic von Frey test in which the plantar skin of the hind paws was exposed to a pressure stimulus of increasing intensity up to 5 grams using a dump needle stick. The force in grams at which the animal responded withdrawal of the hind paw (paw withdrawal threshold, PWT), was used as a measure of tactile allodynia.
Two test groups and one control group of animals were used each consisting of four male C57B6 mice. In all groups, baseline PWT values (BL) were determined before surgery. For induction of neuropathic pain then, under general anesthesia, in all groups the two major branches of the sciatic nerve were ligated and transected, with the sural nerve left intact (spared nerve injury, SNI). In this model of neuropathic pain, tactile allodynia developed completely within two days after nerve transection in the hind paw ipsilateral to the lesion and remained stable in the control group over the complete observation period of the experiment.
7 days after surgery, immediately before administration of the test compound, i.e. at the time 0 h, in all groups PWT values were determined for the injured ipsilateral hind paw and the non-injured contralateral hind paw. Then either the test compound or vehicle was administered to the animals orally by gavage. In the test groups, mice received 100 μl/10 g body weight of a suspension of the test compound in vehicle MC/T80 comprising 0.3 mg/ml or 3 mg/ml (prepared as described in pharmaceutical example A) for attaining a dosage of 3 mg/kg body weight and 30 mg/kg body weight, respectively. In the control group, mice analogously received 100 μl/10 g body weight of vehicle MC/T80. 1 h, 2 h, 4 h and 6 h after administration, PWT values were determined.
The given PWT values (in grams) are the mean±SEM (standard error of the mean) of the PWT measurements performed with the ipsilateral hind paw and the contralateral hind paw, respectively, of each animal of the indicated group (N (number of animals)=4) at the time points 0 h (i.e. before administration of test compound or vehicle) and 1 h, 2 h, 4 h and 6 h after administration of test compound or vehicle, as well as the baseline PWT values (BL) determined before surgery.
For the statistical analysis, PWT values were used in two ways, first with a 2-way ANOVA test based on the PWT values and second with a 1-way ANOVA test based on area under the curve (AUC) values for the time period of 6 h after application of the test compound or vehicle. A repeated measures 2-way ANOVA test (factor treatment and repeated measures factor time) was performed on PWT measurements. In case the interaction (treatment×time) was statistically significant, a Winer complementary analysis was done to investigate the effect of treatment for each time point. A Dunnett's test was used to study the potential differences between the control group and the test groups.
As a quantitative measure of the efficacy of a test compound over an extended time period, the area under the curve (AUC) of the individual PWT values for the time period from 1 h to 6 h after administration of test compound or vehicle (AUC1 h-6 h) was determined for the ipsilateral paws of each group and the obtained value subtracted from the value determined for the contralateral paws of the same group to give DeItaAUC1 h-6 h values for each group. […]

Q: What does the source list for O=C(Nc1ccc(S(=O)(=O)N2CCOCC2)cc1)c1cc(Cl)ccc1NS(=O)(=O)c1ccc(Cl)s1.[Na] [Example 94, 5-Chloro-2-(5-chloro-thiophene-2-sulfonylamino)-N-(4-(morpholine-4-sulfonyl)-phenyl)-benzamide sodium salt]?
A: Mean PWT (paw withdrawal threshold) ± SEM (3 mg/kg body weight group, BL baseline before surgery): 4.75 grams; Mean PWT (paw withdrawal threshold) ± SEM (3 mg/kg body weight group, injured ipsilateral paw, 0 h (before administration)): 1.58 grams; Mean PWT (paw withdrawal threshold) ± SEM (3 mg/kg body weight group, non-injured contralateral paw, 0 h (before administration)): 4.84 ± 0.11 grams; Statistical evaluation vs. control (DeltaAUC1 h-6 h) (3 mg/kg body weight oral): *** (significant, p < 0.0001 (ANOVA & Dunnett)); DeltaAUC1 h-6 h of PWL (mean ± SEM) (3 mg/kg body weight oral): 4.60 ± 1.20; Anti-allodynic effect on PWT vs. control (2-way ANOVA, Dunnett) (3 mg/kg body weight oral, from 1 h to 4 h after administration): Statistically significant ant-allodynic effects; Mean PWT (paw withdrawal threshold) ± SEM (3 mg/kg body weight oral, injured ipsilateral paw, 1 h after administration): 2.96 grams; Mean PWT (paw withdrawal threshold) ± SEM (3 mg/kg body weight oral, injured ipsilateral paw, 2 h after administration): 4.64 ± 0.11 grams; Mean PWT (paw withdrawal threshold) ± SEM (3 mg/kg body weight oral, injured ipsilateral paw, 4 h after administration): 4.12 ± 0.17 grams; Mean PWT (paw withdrawal threshold) ± SEM (3 mg/kg body weight oral, injured ipsilateral paw, 6 h after administration): 2.50 ± 0.40 grams; Mean PWT (paw withdrawal threshold) ± SEM (3 mg/kg body weight oral, non-injured contralateral paw, 1 h after administration): 4.66 ± 0.14 grams; Mean PWT (paw withdrawal threshold) ± SEM (3 mg/kg body weight oral, non-injured contralateral paw, 2 h after administration): 4.95 ± 0.02 grams; Mean PWT (paw withdrawal threshold) ± SEM (3 mg/kg body weight oral, non-injured contralateral paw, 4 h after administration): 4.61 ± 0.13 grams; Mean PWT (paw withdrawal threshold) ± SEM (3 mg/kg body weight oral, non-injured contralateral paw, 6 h after administration): 4.82 grams; Mean PWT (paw withdrawal threshold) ± SEM (30 mg/kg body weight group, BL baseline before surgery): 4.70 grams; Mean PWT (paw withdrawal threshold) ± SEM (30 mg/kg body weight group, injured ipsilateral paw, 0 h (before administration)): 1.91 grams; Mean PWT (paw withdrawal threshold) ± SEM (30 mg/kg body weight group, non-injured contralateral paw, 0 h (before administration)): 4.69 ± 0.23 grams; Statistical evaluation vs. control (DeltaAUC1 h-6 h) (30 mg/kg body weight oral): *** (significant, p < 0.0001 (ANOVA & Dunnett)); DeltaAUC1 h-6 h of PWL (mean ± SEM) (30 mg/kg body weight oral): 1.52 ± 0.94; Anti-allodynic effect on PWT vs. control (2-way ANOVA, Dunnett) (30 mg/kg body weight oral, from 1 h to 6 h after administration): Statistically significant ant-allodynic effects; Mean PWT (paw withdrawal threshold) ± SEM (30 mg/kg body weight oral, injured ipsilateral paw, 1 h after administration): 3.70 grams; Mean PWT (paw withdrawal threshold) ± SEM (30 mg/kg body weight oral, injured ipsilateral paw, 2 h after administration): 4.66 ± 0.10 grams; Mean PWT (paw withdrawal threshold) ± SEM (30 mg/kg body weight oral, injured ipsilateral paw, 4 h after administration): 4.51 ± 0.17 grams; Mean PWT (paw withdrawal threshold) ± SEM (30 mg/kg body weight oral, injured ipsilateral paw, 6 h after administration): 4.24 ± 0.08 grams; Mean PWT (paw withdrawal threshold) ± SEM (30 mg/kg body weight oral, non-injured contralateral paw, 1 h after administration): 4.82 ± 0.10 grams; Mean PWT (paw withdrawal threshold) ± SEM (30 mg/kg body weight oral, non-injured contralateral paw, 2 h after administration): 4.84 ± 0.10 grams; Mean PWT (paw withdrawal threshold) ± SEM (30 mg/kg body weight oral, non-injured contralateral paw, 4 h after administration): 4.70 ± 0.19 grams; Mean PWT (paw withdrawal threshold) ± SEM (30 mg/kg body weight oral, non-injured contralateral paw, 6 h after administration): 4.55 grams; Improvement of DeltaAUC1 h-6 h over vehicle control (1-way ANOVA) (both dosages, 3 mg/kg and 30 mg/kg body weight oral): significant improvement over the control group
